Measured values as given in PubChem BioAssay (NCI).
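Protocol summary: plate cells (96-well), add compound at 5 concentrations, incubate 48 h, interpolate endpoints linearly. TGI: concentration producing complete growth inhibition.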

What was measured:
Experiment in all cases: DTP human tumour cell line panel, 48 h
A498 renal = test system: A498 renal
SF-539 CNS = test system: SF-539 CNS
UACC-62 melanoma = test system: UACC-62 melanoma
HT29 colon = test system: HT29 colon
ACHN renal = test system: ACHN renal
SN12C renal = test system: SN12C renal
SF-295 CNS = test system: SF-295 CNS
BT-549 breast = test system: BT-549 breast
SK-MEL-5 melanoma = test system: SK-MEL-5 melanoma
K-562 leukemia = test system: K-562 leukemia
UACC-257 melanoma = test system: UACC-257 melanoma
NCI-H23 lung = test system: NCI-H23 lung
CCRF-CEM leukemia = test system: CCRF-CEM leukemia
NCI-H460 lung = test system: NCI-H460 lung
OVCAR-3 ovarian = test system: OVCAR-3 ovarian
COLO 205 colon = test system: COLO 205 colon
SNB-75 CNS = test system: SNB-75 CNS
T-47D breast = test system: T-47D breast

Compound | TGI (A498 renal) [µM] | TGI (SF-539 CNS) [µM] | TGI (UACC-62 melanoma) [µM] | TGI (HT29 colon) [µM] | TGI (ACHN renal) [µM] | TGI (SN12C renal) [µM] | TGI (SF-295 CNS) [µM] | TGI (BT-549 breast) [µM] | TGI (SK-MEL-5 melanoma) [µM] | TGI (K-562 leukemia) [µM] | TGI (UACC-257 melanoma) [µM] | TGI (NCI-H23 lung) [µM] | TGI (CCRF-CEM leukemia) [µM] | TGI (NCI-H460 lung) [µM] | TGI (OVCAR-3 ovarian) [µM] | TGI (COLO 205 colon) [µM] | TGI (SNB-75 CNS) [µM] | TGI (T-47D breast) [µM]
C=C(CN(C)C)C(=O)c1ccccc1 | 41.7 | 27.1 | 30.1 | 24.2 | 7.32 | 38.7 | 47.4 | 45 | 28.8 | 14.3 | 27.6 | 45 | 3.17 | 37.5 | 9.9 | 3.03 | 39.7 | 4.93
NC(=S)NN=Cc1ccccc1OCc1cccc(COc2ccccc2C=NNC(N)=S)n1 | 47.7 | > 34.6 | > 100 | > 100 | > 100 | > 100 | 20 | 31 | > 100 | > 100 | > 100 | > 100 | > 100 | > 100 | > 100 | > 100 | 5.62 | > 100
CC(O)C1(O)C(O)CC(OC2c3cc4c(c(O)c3[C@@H]3C[C@@]2(C)OC32C=c3cc[nH]c3=N2)C(=O)c2cccc(O)c2C4=O)OC1C (stereo not given in full) | 2.75 | 2.79 | 3.18 | 2.68 | 4.04 | 1.13 | 5.73 | 19.3 | 5.56 | 4.78 | 3.12 | 3.81 | 1.72 | 4.03 | 6.45 | 1.97 | 8 | 9.07
COC(=O)c1ccccc1C1CN=NC12Cc1cc3c(cc1C2=O)CCC3 (stereo not given) | > 100 | > 100 | > 100 | > 100 | > 100 | > 100 | > 100 | > 100 | 48.7 | > 100 | > 100 | > 100 | > 100 | > 100 | > 100 | > 100 | > 100 | > 100
CC(=O)n1nc(-c2[nH]c(C)c(-c3nn(C(C)=O)c(=S)o3)c2C)oc1=S | > 100 | > 100 | > 100 | > 100 | > 100 | > 100 | > 100 | > 100 | > 100 | > 100 | > 100 | > 100 | > 71.4 | > 100 | > 100 | > 100 | > 100 | > 100
CC(=O)OC[C@@]1(C)[C@@H]2[C@@H]3[C@@]4(CO[C@]3(C)C(=O)[C@@]3(OC(C)=O)C[C@H](C)[C@H](OC(C)=O)[C@@H]3[C@H]4OC(C)=O)[C@H](OC(=O)c3ccccc3)C[C@@H]21 | > 100 | > 100 | > 100 | > 100 | > 100 | > 100 | > 100 | > 100 | > 100 | > 100 | > 100 | > 100 | > 100 | > 100 | > 100 | > 100 | > 100 | > 100
COC(=O)NCCc1[nH]nc2c1C(=O)C=C(Nc1ccccc1OC)C2=O | > 100 | 34.4 | 39.9 | > 100 | > 100 | > 100 | > 100 | > 100 | 27.1 | > 100 | 35.6 | 32.7 | 88.9 | > 100 | > 100 | 61.6 | > 100 | > 100
O=C1NC(=Nc2ccccc2Cl)N/C1=C\c1c(Cl)cccc1Cl | > 100 | > 100 | > 100 | > 100 | > 100 | 84.6 | > 100 | > 100 | 47.2 | > 100 | 79.8 | > 100 | > 100 | 68.2 | > 100 | 56.2 | 76.3 | 81.1
CSc1ncc2c(C#N)c3n(C)c4ccccc4n3c(=O)c2n1 | > 100 | > 100 | > 100 | > 100 | > 100 | > 100 | > 100 | > 100 | > 100 | > 100 | > 100 | > 100 | > 100 | > 100 | > 100 | > 100 | > 100 | > 100
COC(=O)c1cc(C#N)[nH]c1-c1ccc(Br)s1 | 9.9 | 27.2 | 26 | 24.8 | 31.9 | 26 | 21.1 | 22.8 | 15.3 | > 48.4 | 24.9 | 18.9 | 49.9 | 37.8 | 15.9 | 29.1 | 24.9 | 17.2
